According to patent US20050074850A1, “Novel calcium channels and uses thereof” (Synta Pharmaceuticals Corp., priority 2003, published 2005):

Legend:
L-type calcium channels = test: DM-BODIPY binding competition by flow cytometry in T cell leukemia cell lines; set-up: species or system human; details: ten-fold excess (S)-(−)-Bay K8644 over 1 μM DM-BODIPY; Jurkat, MOLT-4, CEM, Loucy, SUP-T1
Description: In another method of determining whether a test compound is binding L-type channels, competition with DM-BODIPY dyes is used. Such assays employ DM-BODIPY (Molecular Probes, Eugene, […].), a dihydropyridine analog that is covalently attached to the BODIPY dye. The DM-BODIPY dye binds to L-type calcium channels on the cell surface and can be assessed by flow-cytometry. Accordingly, a test compound can be used in a competition assay with a DM-BODIPY dye. If the test compound is able to compete for binding of the DM-BODIPY dye to a cell expressing an LVCa(v) polypeptide, the test compound is a candidate compound for binding to the LVCa(v) polypeptide and being a modulator of the activity of that channel.
To ascertain the levels of L-type channel expression at the cell surface, cells were stained with an ester form of DM-BODIPY (Molecular Probes, Inc., Eugene, Oreg., catalog no. D-2183) at final concentration of 1 μM in PBS (phosphate buffered saline). Competition of DM-BODIPY binding was performed with a ten-fold excess (S)-(−)-Bay K8644 (Sigma-Aldrich). Analysis was performed using flow cytometry (Becton Dickinson). FIG. 22A illustrates the results of the DM-BODIPY binding experiments. […]

L-type calcium channel = test: Whole-cell patch clamp of L-type currents in Jurkat T cells; type: cell-based, human
Description: In these patch clamp experiments, Jurkat cells that were grown in suspension cultures were washed once with standard external solution and plated directly onto the experimental bath chamber. Cells were kept in a standard modified Ringer's solution of the following composition (in mM): […] pipette-filling solutions for voltage-gated L-type channels contained (in mM): […], the above solution was replaced by an otherwise identical extracellular solution in which 10 μM Bay K was added to the bath. Intracellular pipette-filling solutions for voltage-gated L-type channels in some cases contained (in mM): Cs-glutamate 120, NaCl 8, MgCl2 1, MgATP 2, NaGTP 0.3, Cs-BAPTA 10, Hepes-CsOH 10, pH 7.2. Patch clamp experiments were performed in the tight-seal whole-cell configuration at 24±2° C. High-resolution current recordings were acquired by a computer-based patch clamp amplifier system (EPC-9, HEKA, Lambrecht, Germany). Patch pipettes had resistances between 2-4 MΩ after filling with the standard intracellular solution. For L-type current measurements the holding potential was −80 mV and the duration of the ramp was 100 ms for optimal L-type current size. All voltages were corrected for a liquid junction potential of 10 mV between external and internal solutions. Currents were filtered at 2.3 kHz and digitized at 100 μs intervals. Capacitive currents and series resistance were determined and corrected before each voltage ramp using the automatic capacitance compensation of the EPC-9. For ICRAC analysis, the very first ramps prior to current activation were digitally filtered at 2 kHz, pooled and used for leak-subtraction of all subsequent current records. The low-resolution temporal development of currents at a given potential was extracted from the leak-corrected individual ramp current records by measuring the current amplitudes at voltages of −80 mV or +80 mV, respectively. Similarly, one of the first ramps could be used as leak-subtraction for L-type currents, as the currents developed over a time course of 6-8 seconds, indicating recovery from inactivation. Where applicable, statistical errors of averaged data are given as means±S.E.M. with n determinations and statistical significance was assessed by Student's t-test.
For measurements of the L-type current with barium as the charge carrier, whole cell voltage-clamp recordings were performed using an Axopatch 200 amplifier (Axon Instruments) in a bath consisting of 135 mM choline Cl, 10 mM HEPES, 1 mM MgCl2 and 20 mM BaCl2, adjusted to a pH of 7.2 with CsOH. The internal solution consisted of 135 mM CsCl, 10 mM HEPES, 1 mM EGTA, 1 mM EDTA, and 4 mM Mg-ATP, adjusted to a pH of 7.2 with CsOH. Pclamp 8 software was used for data acquisition (Axon Instruments). For square pulse protocols, data were filtered at 2 kHz and sampled at 10 kHz. Patch electrodes were 3.8-4.4 MΩ when filled with internal solution. Leak subtraction was performed online using a P/-4 protocol. 75% series resistance compensation was used with a 10 μs lag. Statistical references indicate the mean±s.e. After forming the whole-cell patch, cells were lifted off the bottom of the dish and placed in front of an array of perfusion tubes made of 250 μm internal diameter quartz tubing (Polymicro Technologies, Phoenix, Ariz.) connected by Teflon tubing to glass reservoirs. […]

L-type channels [1] = test: Calcium flux in siRNA-expressing Jurkat cells; type: cell-based, human; details: pool of zeocin-resistant Jurkat clones
Description: To assess the effect of expressing the mutant three-domain Ca(v)1.3 on calcium influx in cells, bulk calcium assays were performed using fura-2 (Molecular Probes) ratiometric imaging according to the manufacturer's recommendations. Fura-2 is a calcium-sensitive dye. When excited at short ultra-violet wavelengths (340 nm) the fluorescence of fura-2 increases with increasing calcium concentration, whereas fluorescence decreases with increasing calcium concentration at longer wavelengths (380 nm). By forming a ratio of successive images obtained at each wavelength, a measure of calcium concentration inside the fura-2 loaded cell is obtained.
(§1) This consensus sequence was used in the design of a sequence that would express an siRNA for stable expression of a hairpin loop containing the consensus sequence. The sequence was cloned into the psiRNA-hHlzeo vector (Invitrogen, San Diego, Calif.), the sequence was verified, and Jurkat cells were transfected with it. To select clones that were positive for expression of the hairpin, 400 micrograms/ml of zeocin was added 24 hours after transfection. […] Independent, individual clones were also generated in parallel. […] Thus, loss of L-type channel expression also correlates with decreased proliferation of Jurkat T cells.

Jurkat T cells = test: Growth and cell numbers of siRNA-expressing Jurkat clones; type: cell-based, human
Description: as §1
Jurkat cells were stably transfected with each of the siRNA constructs and pools of clones of each were analyzed. RT-PCR was performed on samples from the clones to detect expression of Ca(v)1.3.

L-type channels [2] = test: DM-BODIPY staining (flow cytometry) of siRNA-expressing Jurkat cells; type: cell-based, human
Description: as §1
First, control wild type (WT) and L-type siRNA-expressing (LT1) Jurkat T cells were stained with DM-BODIPY and analyzed by flow cytometry (Un indicates unstained cells). The LT1 cells were transfected with an siRNA sequence that targets the majority of L-type channels, and was designed based on sequence consensus of the human L-type calcium channels.

COC(=O)C1=C(C)NC(C)=C([N+](=O)[O-])[C@H]1c1ccccc1C(F)(F)F [BayK8644, (S)-(−)-Bay K8644]
DM-BODIPY binding competed by BayK8644 (L-type calcium channels): competed
reversibility of agonist effect when washed out (L-type calcium channel; Jurkat cells): reversible
cells with discernible DHPR (L-type calcium channel) currents (L-type calcium channel; Jurkat cells tested in the presence of BayK8644): Five of eleven
average current densities (L-type calcium channel; Jurkat cells, 10 μM BayK8644, calcium as charge carrier, n=5, +/− s.e.m.): 1+/−0.3 pA/pF
peak current increase (L-type calcium channel; Jurkat cells, in presence of the L-type agonist, calcium as charge carrier): five-fold

CCCCCCCCCCCCCC(=O)O[C@@H]1[C@@H](C)[C@@]2(O)[C@@H](C=C(CO)C[C@]3(O)C(=O)C(C)=C[C@@H]23)[C@@H]2C(C)(C)[C@]12OC(C)=O [PMA, phorbol 12-myristate 13-acetate]
L-type current amplitude (L-type calcium channel; Jurkat cells pre-treated with PMA): significantly increased

LT1 (DNA AACTGTGAGCTGGACAAGAA; chemistry not given here)
calcium flux (L-type channels [1]): marked decrease
growth of clones (Jurkat T cells; individual siRNA-expressing Jurkat clones): slow rate of growth
growth of clones (Jurkat T cells; individual siRNA-expressing Jurkat clones, listed as consensus sequence): grew very slowly
growth of clones (Jurkat T cells; pool of zeocin-resistant Jurkat clones, bulk culture): grew more slowly
reduction in DM-BODIPY binding (L-type channels [2]; independent, individual Jurkat clones): approximately 90%
DM-BODIPY binding (L-type channels [2]; pool of zeocin-resistant Jurkat clones): decrease
decrease of surface expression of L-type channels (L-type channels [2]; stable siRNA expression in Jurkat T cells, DM-BODIPY staining): about 90%
